Literature values, collected in US7718642B2, “AIDS prophylactic lubricating composition” (priority 1993, dated 2010).

Columns and labels:
HIV [1] = details: used as contraceptive during sexual relations; J. Kreiss et al, JAMA 1992
HIV [2] = tested on: HIV
sperm cells = details: diffusion into cervical mucous
[3] = previous studies (Int J STD & AIDS); read-out: CC50 value (50% toxic dose)
[4] = in vivo

Row | Compound | Prevention of HIV transmission (HIV [1]) | selectivity value (HIV [2]; CC50/IC50, previous studies (Int J STD & AIDS)) | IC50 (HIV [2]; previous studies (Int J STD & AIDS), read-out: IC50 value (50% inhibitory dose)) | Concentration that restricts penetration of sperm cells and causes loss of mobility (sperm cells) | CC50 [3] | Concentration that effectively destroys the envelope of viruses (viruses) | Undesirable side effects [4]
1 | nonoxynol-9 | did not prevent HIV transmission | – | – | – | – | – | –
2 | [H]/N=C(\N/C(=N/[H])NCCCCCCNC(=N)NC(=N)Nc1ccc(Cl)cc1)Nc1ccc(Cl)cc1 [chlorhexidine] | – | 5.2 | 250 nM | above 0.1% | 1300 nM | above 0.1% | does not produce any undesirable side effects
